According to patent US9890139B2, “CYP17 inhibitors/antiandrogens” (Orion Corporation, priority 2013, dated 2018):

Each compound was assayed against T1, full-length human AR (Homo sapiens, UniProt P10275) (assay: AR antagonism, reporter gene assay in hAR/HEK293 cells). Settings: HEK293 cells stably transfected with full-length human AR and androgen responsive luciferase reporter; co-treated with submaximal testosterone (usually 0.45 nM); 1% DMSO; triplicates.
T1 construct: expression vector encoding full-length human AR; expressed in transfected cells; host or cells: HEK293 (hAR/HEK293 cells)
T1 sequence (P10275 1-920): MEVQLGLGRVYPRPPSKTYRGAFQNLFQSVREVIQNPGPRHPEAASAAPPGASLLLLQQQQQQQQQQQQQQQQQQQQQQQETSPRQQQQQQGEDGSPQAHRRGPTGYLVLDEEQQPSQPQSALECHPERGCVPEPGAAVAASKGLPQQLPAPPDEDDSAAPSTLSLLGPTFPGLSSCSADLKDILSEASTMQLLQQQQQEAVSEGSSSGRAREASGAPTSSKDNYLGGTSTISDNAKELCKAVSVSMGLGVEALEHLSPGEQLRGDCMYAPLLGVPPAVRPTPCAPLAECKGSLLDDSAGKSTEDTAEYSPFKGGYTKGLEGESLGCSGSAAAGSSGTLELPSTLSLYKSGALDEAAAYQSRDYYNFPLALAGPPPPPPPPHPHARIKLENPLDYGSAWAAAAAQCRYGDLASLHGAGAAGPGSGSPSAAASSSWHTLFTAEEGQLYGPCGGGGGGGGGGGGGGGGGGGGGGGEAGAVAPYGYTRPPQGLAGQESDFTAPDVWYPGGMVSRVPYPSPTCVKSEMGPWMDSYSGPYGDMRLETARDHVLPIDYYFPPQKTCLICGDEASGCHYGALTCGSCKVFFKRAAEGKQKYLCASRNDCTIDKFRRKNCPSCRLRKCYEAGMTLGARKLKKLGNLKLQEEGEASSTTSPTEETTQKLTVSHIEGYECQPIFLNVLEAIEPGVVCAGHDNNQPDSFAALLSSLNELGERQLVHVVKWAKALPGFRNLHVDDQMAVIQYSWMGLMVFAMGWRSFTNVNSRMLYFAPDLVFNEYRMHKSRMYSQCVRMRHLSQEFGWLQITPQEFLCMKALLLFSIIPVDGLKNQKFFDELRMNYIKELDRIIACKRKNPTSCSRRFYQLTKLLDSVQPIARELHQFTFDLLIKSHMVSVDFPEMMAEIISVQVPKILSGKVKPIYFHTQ
Type: cell-based
Description: Antagonism of test compounds for AR was measured by reporter gene assay in human embryonic kidney (HEK293) cells stably transfected with an expression vector encoding full-length human AR and androgen responsive luciferase reporter gene construct (hAR/HEK293 cells). To determine antagonism for hAR, the cells were treated simultaneously with increasing concentrations of the test compound and submaximal concentration of testosterone (usually 0.45 nM). The final DMSO concentration was 1%. All test compounds were studied in triplicates. The cells were incubated for […] before measurement of luciferase activity using Luciferase Assay System (Promega Corporation).
CCN(c1ccc(C#N)c(C(F)(F)F)c1)C1C=C(n2cncn2)CCC1 (centres unmarked) [Ex. 210, 4-((3-(1H-1,2,4-triazol-1-yl)cyclohex-2-en-1-yl)(ethyl)amino)-2-(trifluoromethyl)benzonitrile] gave an IC50 of 0.023 µM.
CCN(c1ccc(C#N)c(C(F)(F)F)c1)C1CCCC(c2nnn(C)n2)C1 (single isomer, unassigned; isomer 4) [Ex. 11 cis of 2,5-isomer, 4-(Ethyl(3-(2-methyl-2H-tetrazol-5-yl)cyclohexyl)amino)-2-(trifluoromethyl)benzonitrile] showed an IC50 of 0.026 µM.
For CCN(c1ccc(C#N)c(Cl)c1)C1CCCC(c2cncc(OC)c2)C1 (single isomer, unassigned; diastereomer 2) [Ex. 83 cis-diastereomer, 2-Chloro-4-(ethyl(3-(5-methoxypyridin-3-yl)cyclohexyl)amino)benzonitrile], the IC50 was 0.016 µM.
Compound CCN(c1ccc(C#N)c(C(F)(F)F)c1)C1CCCC(O)(c2cccnc2)C1 (single isomer, unassigned) [Ex. 216 diastereomer 2, 4-(Ethyl(3-hydroxy-3-(pyridin-3-yl)cyclohexyl)amino)-2-(trifluoromethyl)-benzonitrile] has an IC50 of 0.028 µM.
Work on CCN(c1ccc(C#N)c(C(F)(F)F)c1)C1CCCC(c2nnco2)C1 (single isomer, unassigned; diastereomer 4) [Ex. 19 cis-diastereomer, 4-((3-(1,3,4-Oxadiazol-2-yl)cyclohexyl)(ethyl)amino)-2-(trifluoromethyl)benzonitrile] yielded an IC50 of 0.065 µM.
For CCN(c1ccc(C#N)c(C(F)(F)F)c1)C1CCCC(n2ccnc2)C1 (single isomer, unassigned) [Ex. 72 cis-enantiomer 2, 4-((3-(1H-imidazol-1-yl)cyclohexyl)(ethyl)amino)-2-(trifluoromethyl)benzonitrile], the IC50 was 0.027 µM.
With CCN(c1ccc(C#N)c(C(F)(F)F)c1)C1CCC=C(c2ccncc2)C1 (centres unmarked) [Ex. 77, 4-(Ethyl(3-(pyridin-4-yl)cyclohex-3-en-1-yl)amino)-2-(trifluoromethyl)benzonitrile] the IC50 was 0.04 µM.
CCN(c1ccc(C#N)c(C(F)(F)F)c1)C1CC=C(c2cnco2)C1 (single isomer, unassigned) [Ex. 233 enantiomer 2, 4-(Ethyl(3-(oxazol-5-yl)cyclopent-3-enyl)amino)-2-(trifluoromethyl)benzonitrile] was tested, and the IC50 was 0.029 µM.
Work on CN(c1ccc(C#N)c(C(F)(F)F)c1)C1C=C(c2cncs2)CCC1 (single isomer, unassigned) [Ex. 232 enantiomer 1, 4-(Methyl(3-(thiazol-5-yl)cyclohex-2-en-1-yl)amino)-2-(trifluoromethyl)-benzonitrile] yielded an IC50 of 0.033 µM.
Work on CCN(c1ccc(C#N)c(Cl)c1)C1CCCC(c2cccnc2)C1 (single isomer, unassigned; diastereomer 2) [Ex. 76 cis-diastereomer, 2-Chloro-4-(ethyl(3-(pyridin-3-yl)cyclohexyl)amino)benzonitrile] yielded an IC50 of 0.001 µM.
For CN(c1ccc(C#N)c(C(F)(F)F)c1)[C@@H]1C=C(n2ccnc2)[C@@H](O)CC1(C)C [Ex. 262, 4-(((1R,4S)-4-hydroxy-3-(1H-imidazol-1-yl)-6,6-dimethylcyclohex-2-en-1-yl)(methyl)-amino)-2-(trifluoromethyl)benzonitrile], the IC50 was 0.089 µM.
With CCN(c1cc(F)c(C#N)c(Cl)c1)C1CCC=C(c2cccnc2)C1 (centres unmarked) [Ex. 132, 2-Chloro-4-(ethyl(3-(pyridin-3-yl)cyclohex-3-en-1-yl)amino)-6-fluorobenzonitrile] the IC50 was 0.007 µM.
CCN(c1ccc(C#N)c(C(F)(F)F)c1)C1CCCC(n2cccn2)C1 (single isomer, unassigned; diastereomer 4) [Ex. 48 cis-diastereomer, 4-((-3-(1H-Pyrazol-1-yl)cyclohexyl)(ethyl)amino)-2-(trifluoromethyl)benzonitrile] showed an IC50 of 0.024 µM.
With CCN(c1ccc(C#N)c(C(F)(F)F)c1)C1CCCC(n2ccnn2)C1 (stereo not drawn) [Ex. 223, 4-((3-(1H-1,2,3-triazol-1-yl)cyclohexyl)(ethyl)amino)-2-(trifluoromethyl)-benzonitrile (cis-diastereomer)] the IC50 was 0.079 µM.

These compounds were tested against T2, 17,20 lyase (CYP17) (Homo sapiens, UniProt P05093) (assay: 17,20 lyase (CYP17) inhibition, acetic acid release assay (AARA) on H295R cells). Settings: human H295R adrenocortical carcinoma cells; overnight (16-19 h) with 17α-[21-3H]hydroxypregnenolone; 3H-acetic acid release; 1% DMSO; quadruplicates; read-out: CYP17 inhibition IC50.
T2 construct: endogenous in cells; host or cells: H295R human adrenocortical carcinoma cells
T2 sequence (P05093 1-508): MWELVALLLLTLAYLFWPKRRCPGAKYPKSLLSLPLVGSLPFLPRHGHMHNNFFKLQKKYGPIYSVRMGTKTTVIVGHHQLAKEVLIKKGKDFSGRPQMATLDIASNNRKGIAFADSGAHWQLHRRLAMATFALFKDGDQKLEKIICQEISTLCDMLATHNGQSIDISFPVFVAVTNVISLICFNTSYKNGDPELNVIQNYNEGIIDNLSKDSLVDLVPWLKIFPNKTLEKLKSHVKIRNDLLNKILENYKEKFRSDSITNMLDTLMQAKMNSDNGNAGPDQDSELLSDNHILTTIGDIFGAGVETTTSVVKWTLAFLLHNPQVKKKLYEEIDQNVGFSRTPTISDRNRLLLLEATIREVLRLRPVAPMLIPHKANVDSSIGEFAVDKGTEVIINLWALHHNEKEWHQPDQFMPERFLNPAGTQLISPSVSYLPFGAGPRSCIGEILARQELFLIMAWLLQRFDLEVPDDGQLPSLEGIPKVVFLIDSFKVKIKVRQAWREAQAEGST
Type: cell-based
Description: The ability of the test compounds to inhibit 17,20 lyase catalysed conversion of 17α-hydroxypregnenolone to dehydroepiandrosterone and acetic acid was measured by acetic acid release assay (AARA) on human H295R adrenocortical carcinoma cell line (Grigoryev, D. N. et al., Analytical Biochemistry 1999; 267:319-330). […] The final DMSO concentration was 1%. Cell culture medium was extracted with dextran-coated charcoal suspension (Isomaa, V. et al., Endocrinology 1982; 111(3):833-843). ^3H-acetic acid was determined by mixing 100 μl of supernatant fraction in 200 μl of scintillation fluid (OptiPhase SuperMix, Perkin Elmer). Radioactivity was measured using a Microbeta scintillation counter (1450 MicroBeta Trilux, Wallac). All the test compounds were studied in quadruplicates.
CN(c1ccc(C#N)c(Cl)c1)C1CC(c2c[nH]cn2)=CCC1(C)C (single isomer, unassigned) [Ex. 2 enantiomer 1, 4-((3-(1H-imidazol-4-yl)-6,6-dimethylcyclohex-3-enyl)(methyl)amino)-2-chlorobenzonitrile] gave an IC50 of 0.027 µM.
In the case of CCN(c1ccc(C#N)c(C(F)(F)F)c1)C1CCCC(c2cnc[nH]2)C1 (stereo not drawn) [Ex. 224 cis-diasteromer, 4-((3-(1H-imidazol-5-yl)cyclohexyl)(ethyl)amino)-2-(trifluoromethyl)benzonitrile], the IC50 is reported as 0.059 µM.
CN(c1ccc(C#N)c(C(F)(F)F)c1)C1C(O)C(c2c[nH]cn2)=CCC1(C)C (single isomer, unassigned) [Ex. 245, 4-{[2-Hydroxy-3-(1H-imidazol-4-yl)-6,6-dimethylcyclohex-3-enyl](methyl)-amino}-2-(trifluoromethyl)benzonitrile] was tested, and the IC50 was 0.097 µM.
With CCN(c1ccc(C#N)c(C(F)F)c1)C1C=C(n2ccnc2)CCC1(C)C (single isomer, unassigned) [Ex. 31 enantiomer 1, 4-((3-(1H-imidazol-1-yl)-6,6-dimethylcyclohex-2-enyl)(ethyl)amino)-2-(difluoromethyl)benzonitrile] the IC50 was 0.023 µM.
CCN(c1ccc(C#N)c(C(F)(F)F)c1)C1CC=C(c2c[nH]cn2)C1 (centres unmarked) [Ex. 150, 4-((3-(1H-imidazol-4-yl)cyclopent-3-en-1-yl)(ethyl)amino)-2-(trifluoromethyl)benzonitrile] gave an IC50 of 0.017 µM.
CN(c1ccc(C#N)c(C(F)(F)F)c1)C1C=C(n2ccnc2)CCC1 (single isomer, unassigned) [Ex. 6 enantiomer 1, 4-((3-(1H-imidazol-1-yl)cyclohex-2-enyl)(methyl)amino)-2-(trifluoromethyl)benzonitrile] showed an IC50 of 0.074 µM.
Compound CCN(c1ccc(C#N)c(C(F)(F)F)c1)C1CCC=C(c2cccnc2)C1(C)C (centres unmarked) [Ex. 97, 4-((2,2-dimethyl-3-(pyridin-3-yl)cyclohex-3-en-1-yl)(ethyl)amino)-2-(trifluoromethyl)benzonitrile] has an IC50 of 0.066 µM.
Compound CN(c1ccc(C#N)c(C(F)(F)F)c1)C1C=C(c2cncn2CCOCc2ccccc2)CCC1(C)C (centres unmarked) [Ex. 220, 4-((3-(1-(2-(benzyloxy)ethyl)-1H-imidazol-5-yl)-6,6-dimethylcyclohex-2-en-1-yl)(methyl)amino)-2-(trifluoromethyl)benzonitrile] has an IC50 of 0.01 µM.
In the case of CN(c1ccc(C#N)c(C(F)(F)F)c1)C1CC(n2ccnc2)CCC1(C)C (single isomer, unassigned) [Ex. 47 cis-enantiomer 3, 4-((5-(1H-Imidazol-1-yl)-2,2-dimethylcyclohexyl)(methyl)amino)-2-(trifluoromethyl)benzonitrile], the IC50 is reported as 0.018 µM.
